Measured values reported in patent US6737383B1, “Herbicidal oxadiazolidines” (priority 1999, dated 2004).

Tests used:
purple nutsedge = experiment: Test B pre/postemergence purple nutsedge; type: in vivo, Cyperus rotundus
Summary of the method: (§1)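 Herbicidal effect was estimated by eye on a ten-point control scale after plants spent twelve to sixteen days in a greenhouse following soil or foliar treatment. Foliar sprays targeted plants at one to four leaves; all doses were formulated in a non-phytotoxic solvent with surfactant.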

duck salad = experiment: Test B flood test duck salad; type: in vivo, Heteranthera limosa
Summary of the method: (§2)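 Read-out is a visual response score from 0 (no effect) to 10 (complete control), assigned by comparison with untreated controls. Treatment was applied at the 2-leaf stage, and plants stayed in the greenhouse for twelve to sixteen days before scoring.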

wild oat = experiment: Test B pre/postemergence wild oat; type: in vivo, Avena fatua
Summary of the method: as §1

rice = experiment: Test B flood test rice; type: in vivo, Oryza sativa
Summary of the method: as §2

corn = experiment: Test B pre/postemergence corn; type: in vivo, Zea mays
Summary of the method: as §1

giant foxtail = experiment: Test B pre/postemergence giant foxtail; type: in vivo, Setaria faberii
Summary of the method: as §1

crabgrass = experiment: Test B pre/postemergence crabgrass; type: in vivo, Digitaria sanguinalis
Summary of the method: as §1

pigweed = experiment: Test B pre/postemergence pigweed; type: in vivo, Amaranthus retroflexus
Summary of the method: as §1

rape = experiment: Test B pre/postemergence rape; type: in vivo, Brassica napus
Summary of the method: as §1

soybean = experiment: Test B pre/postemergence soybean; type: in vivo, Glycine max
Summary of the method: as §1

surinam grass = experiment: Test B pre/postemergence surinam grass; type: in vivo, Brachiaria decumbens
Summary of the method: as §1

blackgrass = experiment: Test B pre/postemergence blackgrass; type: in vivo, Alopecurus myosuroides
Summary of the method: as §1

bedstraw = experiment: Test B pre/postemergence bedstraw; type: in vivo, Galium aparine
Summary of the method: as §1

velvetleaf = experiment: Test B pre/postemergence velvetleaf; type: in vivo, Abutilon theophrasti
Summary of the method: as §1

morningglory = experiment: Test B pre/postemergence morningglory; type: in vivo, Ipomoea hederacea
Summary of the method: as §1

wheat = experiment: Test B pre/postemergence wheat; type: in vivo, Triticum aestivum
Summary of the method: as §1

[1] = Preemergence, Rate 62 g/ha, scale of 0 to 10 where 0 is no effect and 10 is complete control
[2] = Preemergence, Rate 500 g/ha, scale of 0 to 10 where 0 is no effect and 10 is complete control
[3] = Rate 62 g/ha, Postemergence, scale 0 to 10 (0 no effect, 10 complete control)
[4] = Rate 125 g/ha, Postemergence, scale of 0 to 10 where 0 is no effect and 10 is complete control
[5] = Rate 250 g/ha, Postemergence, scale of 0 to 10 where 0 is no effect and 10 is complete control
[6] = Rate 62 g/ha, headed Pre-emergence (flood test species), scale 0 to 10 (0 no effect, 10 complete control)
[7] = Rate 125 g/ha, Pre-emergence, flood test species, scale 0 to 10 where 0 is no effect and 10 is complete control
[8] = Rate 250 g/ha, Pre-emergence, flood-test species, scale 0 to 10, 0 is no effect, 10 is complete control
[9] = Rate 500 g/ha, Pre-emergence, flood test species, scale 0 to 10 (0 no effect, 10 complete control)
[10] = Preemergence, Rate 250 g/ha, scale of 0 to 10 where 0 is no effect and 10 is complete control
[11] = Rate 500 g/ha, Postemergence, scale 0 to 10, 0 no effect, 10 complete control

CSCCn1c(=O)on(C(=O)N(c2ccc(F)cc2)C(C)C)c1=O [Compound 314]
5: Blackgrass plant response rating (blackgrass; [1]) | Plant response rating, Blackgrass (blackgrass; [5]) | Blackgrass plant response rating (blackgrass; [11]) | Velvetleaf plant response rating (velvetleaf; [2])
10: Giant foxtail plant response rating (giant foxtail; [2]) | Blackgrass plant response rating (blackgrass; [10]) | Blackgrass plant response rating (blackgrass; [2])
1: Crabgrass plant response rating (crabgrass; [1])
9: Redroot pigweed plant response rating (pigweed; [2])
4: Plant response rating, Crabgrass (crabgrass; [5]) | Plant response rating, Soybean (soybean; [5]) | Blackgrass plant response rating (blackgrass; [4]) | Bedstraw plant response rating (bedstraw; [4])
7: Giant foxtail plant response rating (giant foxtail; [10]) | Crabgrass plant response rating (crabgrass; [10]) | Rape plant response rating (rape; [2]) | Blackgrass plant response rating (0 to 10 scale) (blackgrass; Preemergence, Rate 125 g/ha)
2: Wild oats plant response rating (0 to 10 scale) (wild oat; Preemergence, Rate 125 g/ha) | Wild oats plant response rating (wild oat; [10]) | Plant response rating, Wild oats (wild oat; [5]) | Redroot pigweed plant response rating (0 to 10 scale) (pigweed; Preemergence, Rate 125 g/ha) | Redroot pigweed plant response rating (pigweed; [10]) | Soybean plant response rating (soybean; [3]) | B. signalgrass plant response rating (0 to 10 scale, 0 is no effect, 10 is complete control) (surinam grass; Preemergence, Rate 125 g/ha) | Blackgrass plant response rating (blackgrass; [3]) | Bedstraw plant response rating (bedstraw; [3]) | Morningglory plant response rating (morningglory; [3]) | Morningglory plant response rating (morningglory; [4])
6: Giant foxtail plant response rating (0 to 10 scale) (giant foxtail; Preemergence, Rate 125 g/ha) | B. signalgrass plant response rating (surinam grass; [10]) | B. signalgrass plant response rating (surinam grass; [2])
8: Crabgrass plant response rating (crabgrass; [2])
0: Nutsedge plant response rating (purple nutsedge; [1]) | Nutsedge plant response rating (purple nutsedge; [2]) | Nutsedge plant response rating (purple nutsedge; [3]) | Nutsedge plant response rating (purple nutsedge; [4]) | Plant response rating, Nutsedge (purple nutsedge; [5]) | Ducksalad plant response rating (duck salad; [6]) | Ducksalad plant response rating (duck salad; [7]) | Ducksalad plant response rating (duck salad; [8]) | Ducksalad plant response rating (duck salad; [9]) | Wild oats plant response rating (wild oat; [1]) | Wild oats plant response rating (wild oat; [3]) | Wild oats plant response rating (wild oat; [4]) | Rice plant response rating (rice; [6]) | Rice plant response rating (rice; [7]) | Rice plant response rating (rice; [8]) | Rice plant response rating (rice; [9]) | Corn plant response rating (corn; [1]) | Corn plant response rating (0 to 10 scale) (corn; Preemergence, Rate 125 g/ha) | Corn plant response rating (corn; [10]) | Corn plant response rating (corn; [2]) | Corn plant response rating (corn; [3]) | Corn plant response rating (corn; [4]) | Plant response rating, Corn (corn; [5]) | Corn plant response rating (corn; [11]) | Giant foxtail plant response rating (giant foxtail; [3]) | Giant foxtail plant response rating (giant foxtail; [4]) | Crabgrass plant response rating (crabgrass; [3]) | Crabgrass plant response rating (crabgrass; [4]) | Redroot pigweed plant response rating (pigweed; [1]) | Redroot pigweed plant response rating (pigweed; [3]) | Redroot pigweed plant response rating (pigweed; [4]) | Plant response rating, Redroot pigweed (pigweed; [5]) | Rape plant response rating (rape; [1]) | Rape plant response rating (rape; [3]) | Rape plant response rating (rape; [4]) | Plant response rating, Rape (rape; [5]) | Soybean plant response rating (soybean; [1]) | Soybean plant response rating (0 to 10 scale) (soybean; Preemergence, Rate 125 g/ha) | Soybean plant response rating (soybean; [10]) | Soybean plant response rating (soybean; [2]) | B. signalgrass plant response rating (surinam grass; [1]) | B. signalgrass plant response rating (surinam grass; [3]) | B. signalgrass plant response rating (surinam grass; [4]) | Plant response rating, B. signalgrass (surinam grass; [5]) | Bedstraw plant response rating (bedstraw; [1]) | Bedstraw plant response rating (0 to 10 scale) (bedstraw; Preemergence, Rate 125 g/ha) | Bedstraw plant response rating (bedstraw; [10]) | Velvetleaf plant response rating (velvetleaf; [1]) | Velvetleaf plant response rating (0 to 10 scale) (velvetleaf; Preemergence, Rate 125 g/ha) | Velvetleaf plant response rating (velvetleaf; [3]) | Velvetleaf plant response rating (velvetleaf; [4]) | Plant response rating, Velvetleaf (velvetleaf; [5]) | Morningglory plant response rating (morningglory; [1]) | Morningglory plant response rating (0 to 10 scale) (morningglory; Preemergence, Rate 125 g/ha) | Morningglory plant response rating (morningglory; [10]) | Morningglory plant response rating (morningglory; [2]) | Wheat plant response rating (wheat; [1]) | Wheat plant response rating (0 to 10 scale) (wheat; Preemergence, Rate 125 g/ha) | Wheat plant response rating (wheat; [10]) | Wheat plant response rating (wheat; [3]) | Wheat plant response rating (wheat; [4])
3: Wild oats plant response rating (wild oat; [2]) | Giant foxtail plant response rating (giant foxtail; [1]) | Plant response rating, Giant foxtail (giant foxtail; [5]) | Crabgrass plant response rating (0 to 10 scale) (crabgrass; Preemergence, Rate 125 g/ha) | Rape plant response rating (rape; [10]) | Soybean plant response rating (soybean; [4]) | B. signalgrass plant response rating (surinam grass; [11]) | Bedstraw plant response rating (bedstraw; [2]) | Velvetleaf plant response rating (velvetleaf; [10]) | Plant response rating, Morningglory (morningglory; [5]) | Wheat plant response rating (wheat; [2]) | Plant response rating, Wheat (wheat; [5])
